For 16 compounds, GI50 and TGI results are on record in PubChem BioAssay (NCI).

Test in all cases: inhibition of tumour cell growth, NCI panel, 48 h
Test [1] relates to NCI-H226 lung.
Test [2] deals with OVCAR-5 ovarian.
Test [3] concerns UACC-257 melanoma.
Test [4] deals with T-47D breast.
The subject of test [5] is A549 NSCLC.
The subject of test [6] is A498 renal.
Test [7] has as its system K-562 leukemia.
In test [8] the test system is SF-539 CNS.
Test [9] concerns HCT-116 colon.
The subject of test [10] is RPMI-8226 leukemia.

Several values for one entry are separate records, joined by “and”; a condition that tells them apart may be missing. Identical values can stand only once.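 Step 1: Grow cells in 96-well plates. Step 2: Expose to compound for 48 hours at 5 concentrations. Step 3: Interpolate endpoints linearly; if unreached, use highest concentration. At the GI50, growth is halved. Definition used: TGI = concentration required for complete inhibition of growth.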

Take `FC(F)(F)c1ccc(-c2cnc(Br)nc2NC2CCCCCC2)cc1`: the GI50 in test [1] was 24.6 µM; in test [2] it was > 100 µM; in test [3], 63.4 µM; in test [4], 19.6 µM; in test [5], 86.5 µM; in test [6], 40 µM. The GI50 in [7] was 50.4 µM; in test [8], > 100 µM; in test [9], 14.4 µM; in [10], 7.98 µM. Further, the TGI in test [1], in test [2], in test [3], in test [4], in [5] and in test [6] was > 100 µM in each case. The TGI in test [7], in test [8], in test [9] and in [10] was > 100 µM each time.
In the case of `CN(Cc1cnc2nc(N)nc(N)c2n1)c1ccc(C(=O)NC(CCC(=O)O)C(=O)O)cc1` (centres undefined), the GI50 was 0.505 µM in test [1]; 0.668 µM in [2]; 0.955 µM in test [3]; > 100 µM in test [4]; 0.0605 µM in [5]; 0.234 µM in [8]. For the same compound, the GI50 is 0.0416 µM in test [9] and 0.629 µM in test [10]. The TGI in [1], in test [2], in [3], in [4], in test [5] and in test [6] was > 100 µM throughout. Also, the TGI in test [7] is > 100 µM; in test [8], > 25.3 µM; in test [9] it was > 100 µM; in [10] it was > 100 µM.
For `CC1(C)OCN(c2ccc(Cl)cc2)Cn2c1nc1ccccc12`, the TGI in test [1], in test [2], in test [3], in [4], in [5] and in test [6] was > 100 µM each time. Further, the TGI in [7], in test [8], in [9] and in [10] was > 100 µM in each case.
In the case of `COC(=O)CCC1=C(C)c2cc3[n-]c(cc4nc(cc5[n-]c(cc1n2)c(CCC(=O)OC)c5C)C=C4C)cc3C.[Cd+2]`, the GI50 is 1.52 µM in test [1]; 16.8 µM in test [2]; 4.06 µM in test [3]; 2.47 µM in test [4]; 4.24 µM in [5]; 9.01 µM in test [6]. For the same compound, the GI50 was 3.32 µM in [7], 4.39 µM in test [8], 8.42 µM in test [9] and 4.23 µM in test [10]. In addition, the TGI stood at 4.73 µM in [1]; 39.7 µM in test [2]; 18.3 µM in test [3]; 6.95 µM in test [4]; 22.9 µM in [5]; 26.3 µM in test [6]. Also, the TGI is > 30.8 µM in test [7], 15.2 µM in [8], 25.3 µM in [9] and > 29.5 µM in test [10].
On to `Cc1nc(NC(=O)N2CCC[C@H]2C(N)=O)sc1-c1ccnc(C(C)(C)C(F)(F)F)c1`, for which the GI50 in test [1] is 5.26 µM and 4.54 µM; in test [2] it was 0.776 µM and 1.02 µM; in [3], 9.58 µM and > 10 µM; in test [4], 0.0412 µM and 0.0507 µM; in test [5] it was 2.94 µM and 4.74 µM; in [6], 1.34 µM and 2.07 µM. Also, the GI50 in [7] is 28.1 µM and > 10 µM; in test [8] it was 3.93 µM and 4.6 µM; in test [9] it was 2.87 µM and 3.48 µM; in test [10] it was 16.1 µM and > 10 µM. Also, the TGI was 45.7 µM and > 10 µM in [1]; 57.4 µM and > 10 µM in [2]; 45 µM and > 10 µM in test [3]; 1.79 µM and 0.599 µM in [4]; 30.9 µM and > 10 µM in test [5]; 5.62 µM and 9.99 µM in [6]. Further, the TGI in test [7] was > 100 µM; in test [8], 24.3 µM and > 10 µM; in test [9], > 87.3 µM; in [10], 58.5 µM and > 10 µM.
For `Cn1cnc([N+](=O)[O-])c1Sc1ncnc2c1ncn2C1OC(CO)C(O)C1O` (centres undefined), the GI50 in test [1] was 8.04 µM; in [2], 42 µM; in test [3] it was 24.5 µM; in test [4], 5.01 µM; in test [5] it was 29.3 µM; in [6], 2.36 µM. The GI50 in test [7] was 3.35 µM; in test [8], 4.11 µM; in test [9], 4.62 µM; in test [10], 2.93 µM. Also, the TGI in test [1], in test [2], in test [3], in [4], in test [5] and in test [6] was > 100 µM throughout. For the same compound, the TGI in test [7], in [8], in [9] and in test [10] was > 100 µM in each case.
Regarding `CC(=O)Oc1cccc2c1C(=O)c1c(OC(C)=O)cc(C)cc1C2=O`, the TGI in test [1], in test [2], in test [3], in [4], in test [5] and in [6] was > 100 µM throughout. In addition, the TGI is > 100 µM in test [7], > 100 µM in test [8], > 100 µM in [9] and 43.8 µM in test [10].
In the case of `Oc1ccc2ccccc2c1N=Nc1ccccc1`, the TGI in [1], in [2], in test [3], in [4], in [5] and in [6] was > 100 µM each time. Also, the TGI in test [7], in [8], in test [9] and in test [10] was > 100 µM in each case. Moreover, the GI50 in test [4] was 22.5 µM and > 100 µM.
For the compound `COc1ccc(/C=C(\C#N)c2cc3ccccc3n2C)cc1`, the GI50 in [1] is 1.87 µM; in test [2], 0.852 µM; in [3], 3.32 µM; in test [4], 0.389 µM; in [5] it was 0.514 µM; in test [6], 0.071 µM. The GI50 in [7] is 0.178 µM; in test [8] it was 0.305 µM; in test [9] it was 0.426 µM; in test [10], 0.388 µM. The TGI in [1] was > 70.8 µM; in test [2], > 100 µM; in test [3], > 100 µM; in test [4], > 100 µM; in [5], > 100 µM; in test [6] it was 0.675 µM. Also, the TGI in test [7] is > 100 µM; in test [8] it was 1.22 µM; in test [9] it was > 100 µM; in test [10] it was > 100 µM.
With `CC1OC(O)C(O)C(O)C1O` (centres undefined), the TGI in test [1], in [2], in test [3], in test [4], in test [5] and in [6] was > 100 µM each time. Further, the TGI in test [7], in test [8], in [9] and in test [10] was > 100 µM in each case.
Consider `COc1ccc(/C=C2\N=C3SC=C(N)N3C2=O)cc1`, for which the GI50 in [1] was 1.16 µM; in [2], 2.13 µM; in test [3], 1.06 µM; in test [4], 0.334 µM; in test [5], 1.64 µM; in [6], 0.177 µM. Besides, the GI50 in test [7] is 1.56 µM; in [8], 1.5 µM; in test [9], 1.11 µM; in test [10], 0.492 µM. Also, the TGI was 7.04 µM in test [1]; 12 µM in [2]; 5.33 µM in test [3]; 14.9 µM in test [4]; 15.6 µM in test [5]; 1.37 µM in test [6]. The TGI in test [7] is 17.3 µM; in [8], 4.07 µM; in test [9], 2.61 µM; in [10], 2.99 µM.
As to `Oc1c(CN2CCCC2)cc(COCc2ccccc2)c2cccnc12`, the GI50 in test [1] was 2.69 µM; in test [2] it was 4.1 µM; in test [3], 2.84 µM; in [4], 2.97 µM; in test [5] it was 3.35 µM; in test [6], 3.82 µM. For the same compound, the GI50 is 2.62 µM in test [7], 2.89 µM in [8], 2.65 µM in test [9] and 3.84 µM in test [10]. The TGI in test [1] is 12 µM; in test [2] it was 21.2 µM; in [3], 8.25 µM; in test [4] it was 15.4 µM; in test [5], 14.1 µM; in test [6], 15 µM. The TGI in test [7] worked out at 20.7 µM; in test [8] it was 10.1 µM; in test [9], 11 µM; in [10], 19.4 µM.
Consider `CC#CC(=O)N1CCC[C@H]1c1nc(-c2ccc(C(=O)Nc3ccccn3)cc2)c2c(N)nccn12`, for which the GI50 was > 65.4 µM in [1]; > 100 µM in test [2]; 50.1 µM in [3]; 10.1 µM in [4]; > 79.1 µM in test [5]; 26.4 µM in [6]. Besides, the GI50 in [7] was > 88.2 µM; in test [8], > 100 µM; in test [9], > 76 µM; in test [10], 59 µM. Moreover, the TGI is > 100 µM in test [1]; > 100 µM in test [2]; > 100 µM in [3]; > 100 µM in test [4]; > 100 µM in [5]; > 81.9 µM in test [6]. The TGI in test [7], in test [8], in [9] and in [10] was > 100 µM in each case.
With `O=C1/C(=C/c2cccs2)CCC/C1=C\c1cccs1`, the GI50 was 49.1 µM in test [1]; > 100 µM in test [2]; 79.1 µM in test [3]; 2.13 µM in test [4]; 68.3 µM in test [5]; 31.4 µM in [6]. In addition, the GI50 in test [7] is > 100 µM; in [8] it was 59.2 µM; in test [9], > 100 µM; in test [10] it was > 100 µM. Further, the TGI was > 100 µM in [1]; > 100 µM in test [2]; > 100 µM in [3]; > 72.8 µM in test [4]; > 100 µM in test [5]; > 100 µM in test [6]. Also, the TGI in test [7], in [8], in [9] and in test [10] was > 100 µM each time.
Turning to `COc1ccccc1-n1c(SCc2cc(OC)c(OC)c(OC)c2)nc2ccc(Cl)cc2c1=O`, the GI50 is 13.3 µM in test [1]; 7.47 µM in test [2]; 5.7 µM in [3]; 4.95 µM in test [4]; 2.87 µM in test [5]; 1.76 µM in test [6]. The GI50 in test [7] is 1.02 µM; in test [8] it was 3.41 µM; in test [9] it was 2.53 µM; in test [10], 3.71 µM. The TGI in [1] was > 100 µM; in test [2], > 100 µM; in test [3], > 100 µM; in test [4], > 100 µM; in test [5], > 100 µM; in test [6] it was 48.2 µM. Moreover, the TGI in [7] is > 100 µM; in test [8], 19.6 µM; in test [9] it was > 100 µM; in test [10], > 100 µM.
As to `Cn1c(=O)c2[nH]c(COc3ccc(C(C)(C)C)cc3)nc2n(C)c1=O`, the GI50 was 25.6 µM in [1]; 24.2 µM in [2]; 6.03 µM in test [3]; 11.9 µM in test [4]; 18.9 µM in test [5]; 4.94 µM in test [6]. For the same compound, the GI50 in [7] was 3.28 µM; in [8], 36.7 µM; in [9], 10.2 µM; in [10], 1.08 µM. The TGI in [1] was > 100 µM; in [2], > 100 µM; in [3], 31.6 µM; in test [4], > 100 µM; in test [5] it was > 100 µM; in test [6], 60.1 µM. The TGI is > 100 µM in test [7], > 100 µM in [8], > 100 µM in [9] and 18.4 µM in [10].
